pIC50: −log10 of the molar value.
Legend:
[1] = target: estrogen receptor (ER) (Homo sapiens (Human), UniProt P03372); experiment: Inhibition of the binding of estrogen (E) to estrogen receptor (ER), MCF-7/ERE-luciferase reporter cells; assay type: cell-based; conditions: MCF-7/ERE-luciferase cells, 0.1 nM estradiol, 24 hours; read-out: IC50 value of inhibition effect on the binding of E to ER
[2] = system: MCF7 cells; experiment: Inhibition of the proliferation of MCF7 cells (Cell Titer-Glo); assay type: cell-based; conditions: Homo sapiens, MCF-7 cells, 72 hours, read-out: IC50 value of inhibition effect on the proliferation of MCF7 cells
How it was run: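 Viability by Cell Titer-Glo luminescence; IC50 from signal versus log concentration.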

[3] = target: ERα (Homo sapiens (Human), UniProt P03372); experiment: Degradation effect on ERα in MCF-7 cells (ERα Duoset ELISA); assay type: cell-based; conditions: MCF-7 cells; read-out: IC50 value of the degradation effect on ERα
Sequence of ERα (P03372 whole entry): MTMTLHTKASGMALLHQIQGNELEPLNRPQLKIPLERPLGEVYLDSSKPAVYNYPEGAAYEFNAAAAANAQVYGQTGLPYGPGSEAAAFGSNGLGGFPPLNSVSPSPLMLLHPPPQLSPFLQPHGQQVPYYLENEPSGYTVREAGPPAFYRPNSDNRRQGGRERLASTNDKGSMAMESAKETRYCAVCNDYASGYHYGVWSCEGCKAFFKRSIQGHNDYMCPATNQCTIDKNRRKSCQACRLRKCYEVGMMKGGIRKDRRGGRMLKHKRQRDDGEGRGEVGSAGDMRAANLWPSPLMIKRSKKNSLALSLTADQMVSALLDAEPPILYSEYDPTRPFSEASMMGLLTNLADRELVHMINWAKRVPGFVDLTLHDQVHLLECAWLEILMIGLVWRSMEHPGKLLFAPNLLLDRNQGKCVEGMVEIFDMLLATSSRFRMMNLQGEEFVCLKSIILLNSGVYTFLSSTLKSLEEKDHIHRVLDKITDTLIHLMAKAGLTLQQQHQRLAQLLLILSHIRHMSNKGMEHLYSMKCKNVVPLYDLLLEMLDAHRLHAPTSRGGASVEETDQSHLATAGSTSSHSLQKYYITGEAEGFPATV

[4] = Pharmacokinetics assay in BALB/C nude mice after intragastrical administration; assay type: in vivo; conditions: female, mouse, plasma, po, 3 mg/kg; for AUC: read-out: Area Under Curve AUC; for CL/F: read-out: Clearance CL/F (converted); for half-life: read-out: Half-Life t½ (converted); for MRT: read-out: Mean Residence Time MRT; for Cmax: read-out: Plasma Conc. Cmax
How it was run: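 Fasted female BALB/C nude mice were dosed intragastrically (0.2 mL/10 g) with compound in 9% PEG400/0.5% Tween 80/0.5% PVP/90% aqueous 0.5% CMC. Blood was taken at 0.5–24.0 h (3 mice per time point), and plasma levels were measured by LC/MS/MS.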

Sequence of estrogen receptor (ER) (P03372 whole entry): as above

Row | SMILES | pIC50 [1] | pIC50 [2] | DC50 [3] | AUC [4] | CL/F [4] | half-life [4] | MRT [4] | Cmax [4]
1 | C[C@@H]1Cc2c(oc3cccc(F)c23)[C@@H](c2c(F)cc(/C=C/C(=O)O)cc2F)N1CC(C)(C)F [Example 74, (E)-3-(3,5-difluoro-4-((1R,3R)-5-fluoro-2-(2-fluoro-2-methylpropyl)-3-methyl-1,2,3,4-tetrahydrobenzofuro[2,3-c]pyridin-1-yl)phenyl)acrylic acid] | 9.68 | 10.05 | 1.35 nM | 5850 ng·h/mL | 142 mL/min/kg | 3.16 h | 2.41 h | 2530 ng/mL
2 | CC1Cc2c(oc3ccc(-c4cnn(C)c4)cc23)C(c2c(F)cc(/C=C/C(=O)O)cc2F)N1CC(C)(C)F [Example 89, (E)-3-(3,5-difluoro-4-((1R,3R/1S,3S)-2-(2-fluoro-2-methylpropyl)-3-methyl-6-(1-methyl-1H-pyrazol-4-yl)-1,2,3,4-tetrahydrobenzofuro[2,3-c]pyridin-1-yl)phenyl)acrylic acid] | 9.68 | 10.10 | 0.31 nM | 7710 ng·h/mL | 108 mL/min/kg | 3.97 h | 5.69 h | 1270 ng/mL

— US10087191B2, “Piperidine derivative and preparation method and pharmaceutical use thereof” (Jiangsu Hengrui Medicine Co., Ltd., priority 2015, dated 2018)
